Assay results published in patent US20260048151A1, “HEMICYANINE PUSH-PULL DYES BASED ON CHROMENE ELECTRON DONORS” (UNIVERSITY OF CONNECTICUT, priority 2022, published 2026).

Key:
[1] = Voltage sensitivity on voltage-clamped hemispherical lipid bilayer; details: for Ex (excitation wavelength of optimal voltage sensitivity) / Voltage Sensitivity ΔF/F per 100 mV: long pass emission filter; for Voltage Sensitivity ΔF/F per 100 mV: magnitude at optimal Ex/Em
Text: It is known that optimal voltage sensitivity can be obtained by measuring the compounds on a voltage-clamped hemispherical bilayer apparatus. The apparatus can include a patch-clamp amplifier, such as a HEKA EPC-8 patch-clamp amplifier. Measurements can be obtained by stepping the membrane potential between two different potentials for a set time lapse. such as, for example, −110 and −60 mV every 10 ms.
Testing VSDs in a voltage-clamped hemispherical lipid bilayer allows one to determine the sensitivity of the VSDs as a function of excitation wavelength. This system has a Teflon tube filled with KCl and is immersed in a KCl solution in a cuvette. A lipid bubble is blown at the tip of the tube and spontaneously forms a bilayer membrane. The VSD to be tested is introduced on one side of the bilayer, usually in the cuvette. Electrodes in the tube and in the cuvette allow the imposition of a voltage across the membrane and a tungsten lamp coupled to a monochromator allows excitation wavelength dependence of the fluorescence response to voltage steps to be determined. This screening approach has allows for the comparison of the efficacy of newly developed VSDs in a well-controlled, consistent manner and to also determine excitation and emission wavelengths with optimal.
Voltage sensitivities of 2a as a function of voltage is shown in FIG. 3A for excitation at 730 nm and 570 nm. The voltage response is linear over the range of −100 mV to +100 mV; 570 nm is slightly to the blue of the isosbestic point, accounting for the weak but inverted sensitivity at this wavelength. […] This opposite polarity at the blue and red edges underlies the ability to use electrochromic hemicyanine dyes for dual-wavelength ratio imaging. The precise location of the isosbestic point in the excitation wavelength depends on the emission filter used because the emission spectrum is also voltage dependent for hemicyanine dyes.
The magnitude and wavelengths of the optimal voltage sensitivities of all the VSDs on the voltage-clamped hemispherical bilayer are included in the third column of Table 1.

[2] = Absorption and emission spectra, fluorescence quantum efficiency in EtOH, PBS and lipid vesicles (MLV); assay type: physicochemical; details: for Fluorescence quantum efficiency (FQE): in lipid vesicle suspensions; for emission maximum: membrane-bound (MLV)
Protocol: FIGS. 2A-2C are plots showing absorption and emission spectra of 2a, in comparison with ElectroFluor630, in various solvent environments: MLV, EtOH, and PBS. Multilamellar lipid vesicle suspension (MLV) was prepared by sonicating soybean phosphatidylcholine in PBS buffer (2 mg/mL) to mimic the cell membrane environment. The emission spectra in ethanol and PBS buffer were scaled 10 and 20 times respectively relative to the emission spectra in MLV. Excitation wavelength is 580 nm for emission spectra.
All chemicals were purchased from commercial sources (Sigma Aldrich, Acros, TCI America, Combi-Blocks, and others) and used without further purification. Column chromatography was generally performed on COMBIFLASH NextGen 300 using normal phase silica columns except that for some final dye products amine silica columns were used. Thin layer chromatography (TLC) was carried out on EM 60 F-254 plastic TLC plates. NMR spectra were recorded on Varian 400 MHz, 500 MHz, and 800 MHz instruments at the UConn Heath Structural Biology Facility. All spectra are referenced internally to TMS or residual solvent signals. Electrospray ionization (ESI) high-resolution mass spectra (HRMS) were obtained on a QStar Elite (AB Sciex) at the Department of Chemistry, University of Connecticut. UV/Vis absorption spectra were recorded on a UV-Visible spectrophotometer (Shimadzu, UV-1601PC) and fluorescence emission spectra on a Horiba Fluorolog spectrofluorometer (Horiba, Inc., Edison, NJ). Fluorescence quantum yield for dyes was determined by a relative method using Rhodamine 6G (excited at 480 nm, FQY=0.95 in EtOH) or cresyl violet (excited at 580 nm, FQY=0.54 in MeOH) as the references.
Absorbance and the fluorescence properties of the new VSDs were determined. The absorption and emission spectra for 2a, together with ElectroFluor630, in aqueous buffer (PBS), ethanol, and when intercalated in the membrane of lipid vesicles are shown in FIGS. 2A-C. […] This is particularly advantageous for fluorescence imaging because background fluorescence from unbound dye is negligible. Another characteristic of the hemicyanine VSDs that is preserved by 2a in FIGS. 2A-C is the large Stokes shift between the excitation and emission maxima. 125 nm for the membrane-bound dye. This is also a benefit for fluorescence detection and imaging, as the fluorescence can be readily filtered from scattered exciting light. The broad wavelength window afforded by the spectra is also an important benefit for the design of experiments with multiple fluorescent sensors. For comparative purposes, certain VSDs are shown below.
As expected, the spectra are largely insensitive to alkyl substitution. Table 1 also includes data for ElectroFluor630 (aka Di-4-ANEQ (F) PTEA) for comparison. The absorption maxima of 2a in ethanol (EtOH), aqueous buffer (PBS) and when bound to lipid membranes (multilamellar vesicles, MLV) are red shifted by 77 nm, 63 nm and 63 nm, respectively, relative to ElectroFluor630, which is isostructural to 2a. […] The absorption and emission spectra of 2a, 2b, and 2c are all shifted to the red by 50-65 nm relative to ElectroFluor630.

[3] = Voltage sensitivity on voltage-clamped hemispherical lipid bilayer; details: 560 nm excitation
in-vivo pig heart = details: translational in-vivo pig model (Lee, et al., 2019); cited from earlier work
[4] = Optimal excitation wavelengths of existing VSDs; assay type: physicochemical
AtT20 cells = experiment: Voltage sensitivity in patch clamped tissue culture cells; assay type: cell-based
Text: We were motivated by separate requests from a company, Tara Biosystems, and the academic lab of Dr. Jack Rogers (see letters of support), for cardiac applications requiring recording over the course of longer than a full day. This will require dyes with both improved persistence (i.e. long washout times) and photostability (to allow for recording over long periods without appreciable bleaching or phototoxicity). We addressed these requirements via synthesis of a fluorinated chromophore (to improve photostability) with lengthened alkyl chains (to improve the strength of membrane binding and therefore persistence); we are calling it ElectroFluor630p™ (630 for the optimal excitation wavelength and p for persistent). ElectroFluor630p™ is similar to ElectroFluor630™, except that the butyl chains have been replaced with pentyl chains. We characterized this new VSD on both our voltage clamped hemispherical bilayer and on AtT20 cells. […] In addition, we will follow-up on these measurements extending the excitation wavelengths to include 660 nm. This is expected to further increase sensitivity and is an important wavelength for commercialization since the Photoswitch Bolt system, which is being sold for high-throughput cardiac safety screening studies (see letter from Stephen Smith), uses 660 nm laser excitation.
Turning to Preliminary Results for Aim 2. we have already described our characterization of a new VSD in patch clamped tissue culture cells in FIG. 2.

[5] = in MLV (multilamellar lipid vesicles)

absorption maximum ([2]; in EtOH) [nm] | absorption maximum [2, 5] [nm] | absorption maximum ([2]; in PBS) [nm] | Fluorescence quantum efficiency (FQE) [2] | emission maximum [2] [nm] | Structure (SMILES) | Ex (excitation wavelength of optimal voltage sensitivity) [1] [nm] | Voltage Sensitivity ΔF/F per 100 mV [1] [%] | other results
577 | 540 | 546 | 0.31 | 673 | CCCCN(CCCC)c1ccc2c(c1)OCC(/C=C/c1cc[n+](CCCS(=O)(=O)[O-])cc1F)=C2 [1a] | 660 | 12 | shift to the red of results relative to the FIG. 1 dye [1]: ~30 nm
580 | 540 | 552 | 0.25 | 677 | CCCCCN(CCCCC)c1ccc2c(c1)OCC(/C=C/c1cc[n+](CCCS(=O)(=O)[O-])cc1F)=C2 [1b] | 640 | 8 | –
579 | 534 | 515 | 0.22 | 675 | CCCCCCN(CCCCCC)c1ccc2c(c1)OCC(/C=C/c1cc[n+](CCCS(=O)(=O)[O-])cc1F)=C2 [1c] | 630 | 11 | –
701 | 614 | 633 | 0.10 | 739 | CCCCN(CCCC)c1ccc2c(c1)OCC(/C=C/c1c(F)c[n+](CCC[N+](CC)(CC)CC)c3ccccc13)=C2.[Br-].[Br-] [2a] | 730 | 17 | ΔF/F/100 mV ([1]; 730 nm excitation): −17%; excitation wavelength of voltage sensitivity higher than any previous VSDs ([1]; at 730 nm): ~100 nm; voltage response of fluorescence ([1]; range −100 mV to +100 mV, excitation 730 nm and 570 nm): linear; red shift of absorption maximum relative to ElectroFluor630 ([2]; bound to lipid membranes (MLV)): 63 nm; red shift of absorption maximum relative to ElectroFluor630 ([2]; in aqueous buffer (PBS)): 63 nm; red shift of absorption maximum relative to ElectroFluor630 ([2]; in ethanol (EtOH)): 77 nm; fluorescence enhancement upon binding to lipid membranes ([2]; lipid membranes vs unbound dye): over 100 fold; fluorescence quantum efficiency despite bathochromic shift ([2]; membrane bound, vs ElectroFluor630): not diminished; Stokes shift between excitation and emission maxima ([2]; membrane-bound dye): 125 nm; ΔF/F/100 mV [3]: +3%
700 | 611 | 628 | 0.10 | 736 | CCCCCN(CCCCC)c1ccc2c(c1)OCC(/C=C/c1c(F)c[n+](CCC[N+](CC)(CC)CC)c3ccccc13)=C2.[Br-].[Br-] [2b] | 720 | 10 | –
496 | 464 | 447 | 0.30 | 617 | CCCCN(CCCC)c1ccc2cc(/C=C/c3cc[n+](CCCS(=O)(=O)[O-])cc3)ccc2c1 [Di-4-ANEPPS, reference compound] | 550 | 10 | –
618 | 547 | 565 | 0.10 | 686 | CCCCN(CCCC)c1ccc2cc(/C=C/c3c(F)c[n+](CCC[N+](CC)(CC)CC)c4ccccc34)ccc2c1.[Br-].[Br-] [ElectroFluor630, Di-4-ANEQ (F) PTEA, reference compound] | 645 | 12 | phototoxicity (in-vivo pig heart): minimal phototoxicity; optimal dual excitation, lower wavelength [4]: 470 nm; optimal dual excitation, upper wavelength [4]: 630 nm
– | – | – | – | – | CCCCCN(CCCCC)c1ccc2cc(/C=C/c3c(F)c[n+](CCC[N+](CC)(CC)CC)c4ccccc34)ccc2c1.[Br-].[Br-] [ElectroFluor630p, Di-5-ANEQ(F)PTEA] | – | – | ΔF/F/100 mV (AtT20 cells; blue-edge excitation): +5.2%; ΔR/R/100 mV (ratio blue/red excitation) (AtT20 cells; ratio measurement): 29.3%; ΔF/F/100 mV (AtT20 cells; red-edge excitation): −19.4%
– | – | – | – | – | CCCCN(CCCC)c1ccc2cc(/C=C/C=C/c3cc[n+](CCC[N+](C)(C)C)c4ccccc34)ccc2c1.[Br-].[Br-] [di-4-ANBDQPQ] | – | – | optimal excitation [4]: 630 nm
